Source: patent US8703961B2, “Thiazole derivatives for the treatment of diseases such as cancer” (Merck Patent GmbH, priority 2009, dated 2014)

Key:
Assay in all cases: filter binding kinase assay
Format in all cases: biochemical
PRKCA = target: T1, PRKCA (Homo sapiens, UniProt P17252); conditions: derived from % inhibition at 1 μM
T1 construct: purchased
Outline: (§1)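 Compound was pre-incubated with enzyme and substrate for 5 minutes at room temperature, then the reaction was started with ATP (added solution at 5, 20 or 50 […] depending on kinase). Orthophosphoric acid stopped it, and phosphorylated substrate captured on P81 filters was quantified by scintillation counting.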

MELK = target: T2, MELK (Homo sapiens, UniProt Q14680); conditions: derived from % inhibition at 1 μM
T2 construct: purchased
T2 sequence (Q14680 whole entry, species assumed): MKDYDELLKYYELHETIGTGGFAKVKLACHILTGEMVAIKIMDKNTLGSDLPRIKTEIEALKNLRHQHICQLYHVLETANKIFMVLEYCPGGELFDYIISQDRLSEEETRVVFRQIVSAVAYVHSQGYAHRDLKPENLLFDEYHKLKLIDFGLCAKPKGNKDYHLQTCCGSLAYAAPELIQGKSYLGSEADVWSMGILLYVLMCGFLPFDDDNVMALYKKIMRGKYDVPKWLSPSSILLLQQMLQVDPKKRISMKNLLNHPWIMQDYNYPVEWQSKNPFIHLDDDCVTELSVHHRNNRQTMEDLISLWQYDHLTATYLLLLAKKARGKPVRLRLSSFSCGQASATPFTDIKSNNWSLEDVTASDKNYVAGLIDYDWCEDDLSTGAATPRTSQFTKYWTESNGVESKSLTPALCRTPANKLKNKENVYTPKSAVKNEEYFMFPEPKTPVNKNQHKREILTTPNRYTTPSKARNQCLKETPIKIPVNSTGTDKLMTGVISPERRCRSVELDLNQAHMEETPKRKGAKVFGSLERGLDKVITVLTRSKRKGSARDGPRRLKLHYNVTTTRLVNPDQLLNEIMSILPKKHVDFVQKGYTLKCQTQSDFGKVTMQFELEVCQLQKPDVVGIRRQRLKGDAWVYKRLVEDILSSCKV
Outline: as §1

TTK = target: T3, TTK (Homo sapiens, UniProt P33981); conditions: derived from % inhibition at 1 μM
T3 construct: purchased
T3 sequence (P33981 1-857): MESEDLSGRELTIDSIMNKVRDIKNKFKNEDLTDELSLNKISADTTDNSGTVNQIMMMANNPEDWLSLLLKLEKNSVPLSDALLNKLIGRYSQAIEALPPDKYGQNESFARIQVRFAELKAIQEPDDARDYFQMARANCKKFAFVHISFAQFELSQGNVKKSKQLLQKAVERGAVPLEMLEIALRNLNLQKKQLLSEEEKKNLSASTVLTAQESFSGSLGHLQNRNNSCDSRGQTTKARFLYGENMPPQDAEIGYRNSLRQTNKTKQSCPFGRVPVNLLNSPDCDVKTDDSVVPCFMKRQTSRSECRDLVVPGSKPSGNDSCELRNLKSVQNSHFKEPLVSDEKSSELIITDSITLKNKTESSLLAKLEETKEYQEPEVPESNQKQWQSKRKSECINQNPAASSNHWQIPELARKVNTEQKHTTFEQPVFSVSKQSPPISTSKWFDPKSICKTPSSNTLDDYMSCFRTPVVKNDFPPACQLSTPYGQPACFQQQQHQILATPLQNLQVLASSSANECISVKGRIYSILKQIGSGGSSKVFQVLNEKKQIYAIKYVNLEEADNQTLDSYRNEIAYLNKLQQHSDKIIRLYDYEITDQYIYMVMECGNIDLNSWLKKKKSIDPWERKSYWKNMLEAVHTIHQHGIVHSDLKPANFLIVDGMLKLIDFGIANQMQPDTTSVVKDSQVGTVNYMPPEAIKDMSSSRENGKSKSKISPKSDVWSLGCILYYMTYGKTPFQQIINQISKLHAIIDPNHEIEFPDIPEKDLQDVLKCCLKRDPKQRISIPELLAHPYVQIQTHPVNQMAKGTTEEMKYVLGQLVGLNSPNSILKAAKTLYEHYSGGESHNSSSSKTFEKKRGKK
Outline: as §1

TBK1 = target: T4, TBK1 (Homo sapiens, UniProt Q9UHD2); conditions: derived from % inhibition at 1 μM
T4 construct: purchased
T4 sequence (Q9UHD2 1-729): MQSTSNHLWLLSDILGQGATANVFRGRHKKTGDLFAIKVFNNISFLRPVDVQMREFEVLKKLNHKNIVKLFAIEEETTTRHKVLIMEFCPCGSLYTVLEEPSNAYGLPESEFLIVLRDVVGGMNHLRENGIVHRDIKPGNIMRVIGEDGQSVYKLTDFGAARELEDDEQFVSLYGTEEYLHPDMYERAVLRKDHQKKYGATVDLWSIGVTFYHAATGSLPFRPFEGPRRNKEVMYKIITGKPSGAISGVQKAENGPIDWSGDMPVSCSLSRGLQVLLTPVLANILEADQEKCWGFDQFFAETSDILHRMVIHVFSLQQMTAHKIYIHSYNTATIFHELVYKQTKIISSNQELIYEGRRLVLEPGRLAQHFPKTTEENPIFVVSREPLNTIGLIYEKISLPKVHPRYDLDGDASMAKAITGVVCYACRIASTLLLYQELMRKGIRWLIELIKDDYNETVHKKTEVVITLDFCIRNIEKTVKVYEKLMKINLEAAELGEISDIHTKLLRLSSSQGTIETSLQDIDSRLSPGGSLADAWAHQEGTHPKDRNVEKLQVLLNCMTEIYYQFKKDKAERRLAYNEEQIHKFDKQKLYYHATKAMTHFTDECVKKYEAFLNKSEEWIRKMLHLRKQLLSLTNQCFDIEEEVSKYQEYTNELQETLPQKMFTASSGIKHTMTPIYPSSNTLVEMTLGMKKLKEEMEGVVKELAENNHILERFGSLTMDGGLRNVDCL
Outline: as §1

CHEK2 = target: T5, CHEK2 (Homo sapiens, UniProt O96017); conditions: derived from % inhibition at 1 μM
T5 construct: purchased
T5 sequence (O96017 whole entry, species assumed): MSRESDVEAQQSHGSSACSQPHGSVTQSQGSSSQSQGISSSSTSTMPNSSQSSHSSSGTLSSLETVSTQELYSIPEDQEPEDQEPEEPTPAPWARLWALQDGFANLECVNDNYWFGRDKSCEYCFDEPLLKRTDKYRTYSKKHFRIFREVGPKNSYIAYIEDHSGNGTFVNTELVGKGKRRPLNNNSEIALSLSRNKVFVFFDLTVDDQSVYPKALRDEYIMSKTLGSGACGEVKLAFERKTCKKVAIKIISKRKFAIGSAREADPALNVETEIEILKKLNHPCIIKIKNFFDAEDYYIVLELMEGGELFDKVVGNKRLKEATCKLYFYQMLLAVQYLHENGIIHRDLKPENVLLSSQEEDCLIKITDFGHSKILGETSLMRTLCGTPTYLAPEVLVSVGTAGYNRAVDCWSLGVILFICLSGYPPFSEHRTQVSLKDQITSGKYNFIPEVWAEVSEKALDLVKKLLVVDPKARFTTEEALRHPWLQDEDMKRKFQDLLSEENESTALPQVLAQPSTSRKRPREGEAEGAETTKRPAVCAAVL
Outline: as §1

CHEK1 (CHK1) = target: T6, CHEK1 (CHK1) (Homo sapiens, UniProt O14757); conditions: for IC50: derived from % inhibition at 1 μM
T6 construct: purchased
T6 sequence (O14757 1-476): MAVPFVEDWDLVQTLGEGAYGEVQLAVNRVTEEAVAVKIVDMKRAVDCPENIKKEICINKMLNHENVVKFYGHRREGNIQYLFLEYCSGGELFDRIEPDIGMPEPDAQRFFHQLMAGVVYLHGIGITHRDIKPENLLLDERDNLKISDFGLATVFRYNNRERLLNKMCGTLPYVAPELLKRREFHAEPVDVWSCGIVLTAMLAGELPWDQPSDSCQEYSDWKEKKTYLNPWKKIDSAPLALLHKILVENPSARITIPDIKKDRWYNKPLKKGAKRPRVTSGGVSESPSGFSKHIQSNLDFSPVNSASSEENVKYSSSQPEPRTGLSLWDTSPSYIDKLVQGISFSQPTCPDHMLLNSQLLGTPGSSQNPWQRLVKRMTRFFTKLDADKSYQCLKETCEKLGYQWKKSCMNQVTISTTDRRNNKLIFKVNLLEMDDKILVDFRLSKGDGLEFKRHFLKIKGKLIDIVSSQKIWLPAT
Outline: as §1

| Structure (SMILES) | IC50 (PRKCA) [µM] | IC50 (MELK) [µM] | IC50 (TTK) [µM] | IC50 (TBK1) [µM] | IC50 (CHEK2) [µM] | IC50 (CHEK1 (CHK1)) [µM] | remaining activity at 1 µM (CHEK1 (CHK1); read-out: residual kinase activity CHK1) [%] |
| --- | --- | --- | --- | --- | --- | --- | --- |
| CC(C)(C)OC(=O)Nc1ncsc1C#CCN1C(=O)c2ccccc2C1=O [Compound A26, tert-butyl{5-[3-(1,3-dioxo-1,3-dihydroisoindol-2-yl)prop-1-ynyl]-thiazol-4-yl}carbamate] | 1 to 10 | > 1 | 10 to 100 | > 1 | > 1 | 10 to 100 | – |
| Nc1ncsc1C#Cc1cccc(O)c1 [Compound A27, 3-(4-aminothiazol-5-ylethynyl)phenol] | > 1 | 1 to 10 | 10 to 100 | > 1 | 10 to 100 | 10 to 100 | – |
| c1ccc(Cc2c[nH]c3ncsc23)cc1 [Compound A7, 6-benzyl-4H-pyrrolo[2,3-d]thiazole] | 10 to 100 | 1 to 10 | 10 to 100 | > 1 | > 1 | > 1 | – |
| CC(C)(C)OC(=O)Nc1nc(-c2ccncc2)sc1C#CCN1CCOCC1 [Compound A25, tert-butyl[5-(3-morpholin-4-ylprop-1-ynyl)-2-pyridin-4-ylthiazol-4-yl]-carbamate] | 10 to 100 | > 1 | 10 to 100 | 10 to 100 | > 1 | 10 to 100 | – |
| Nc1ncsc1C#Cc1cnc2[nH]ccc2c1 [Compound A22, 5-(1H-pyrrolo[2,3-b]pyridin-5-ylethynyl)thiazol-4-ylamine] | 1 to 10 | > 1 | 10 to 100 | > 1 | > 1 | 0.01 to 1 | 40 |
